According to PMC9571063 (Molecules, 2022):

Key:
Experiment in all cases: KINOMEscan
[1] = biological target: T1, ABL1(F317L)-nonphosphorylated (Homo sapiens, UniProt P00519, F317L); assay type: binding; settings: read-out: Percent Control
T1 construct: purchased Eurofins DiscoverX KINOMEscan (scanMAX 468)

[2] = biological target: T2, ABL1(Q252H)-phosphorylated (Homo sapiens, UniProt P00519, Q252H); assay type: binding; settings: read-out: Percent Control
T2 construct: purchased Eurofins DiscoverX KINOMEscan (scanMAX 468)

ASK2 = biological target: T3, ASK2 (Homo sapiens, UniProt O95382); assay type: binding; settings: read-out: Percent Control
T3 construct: purchased Eurofins DiscoverX KINOMEscan (scanMAX 468)

CAMK1D = biological target: T4, CAMK1D (Homo sapiens, UniProt Q8IU85); assay type: binding; settings: read-out: Percent Control
T4 construct: purchased Eurofins DiscoverX KINOMEscan (scanMAX 468)

CDKL1 = biological target: T5, CDKL1 (Homo sapiens, UniProt Q00532); assay type: binding; settings: read-out: Percent Control
T5 construct: purchased Eurofins DiscoverX KINOMEscan (scanMAX 468)

CDKL3 = biological target: T6, CDKL3 (Homo sapiens, UniProt Q8IVW4); assay type: binding; settings: read-out: Percent Control
T6 construct: purchased Eurofins DiscoverX KINOMEscan (scanMAX 468)

CSF1R-autoinhibited = biological target: T7, CSF1R-autoinhibited (Homo sapiens, UniProt P07333); assay type: binding; settings: read-out: Percent Control
T7 construct: purchased Eurofins DiscoverX KINOMEscan (scanMAX 468)

EGFR(G719C) = biological target: T8, EGFR(G719C) (Homo sapiens, UniProt P00533, G719C); assay type: binding; settings: read-out: Percent Control
T8 construct: purchased Eurofins DiscoverX KINOMEscan (scanMAX 468)

EGFR(L747-T751del,Sins) = assay type: binding, human; settings: 1 μM
EPHA4 = biological target: T9, EPHA4 (Homo sapiens, UniProt P54764); assay type: binding; settings: read-out: Percent Control
T9 construct: purchased Eurofins DiscoverX KINOMEscan (scanMAX 468)

ERK2 = biological target: T10, ERK2 (Homo sapiens, UniProt P28482); assay type: binding; settings: read-out: Percent Control
T10 construct: purchased Eurofins DiscoverX KINOMEscan (scanMAX 468)

ERK3 = biological target: T11, ERK3 (Homo sapiens, UniProt Q16659); assay type: binding; settings: read-out: Percent Control
T11 construct: purchased Eurofins DiscoverX KINOMEscan (scanMAX 468)
T11 sequence (Q16659 whole entry): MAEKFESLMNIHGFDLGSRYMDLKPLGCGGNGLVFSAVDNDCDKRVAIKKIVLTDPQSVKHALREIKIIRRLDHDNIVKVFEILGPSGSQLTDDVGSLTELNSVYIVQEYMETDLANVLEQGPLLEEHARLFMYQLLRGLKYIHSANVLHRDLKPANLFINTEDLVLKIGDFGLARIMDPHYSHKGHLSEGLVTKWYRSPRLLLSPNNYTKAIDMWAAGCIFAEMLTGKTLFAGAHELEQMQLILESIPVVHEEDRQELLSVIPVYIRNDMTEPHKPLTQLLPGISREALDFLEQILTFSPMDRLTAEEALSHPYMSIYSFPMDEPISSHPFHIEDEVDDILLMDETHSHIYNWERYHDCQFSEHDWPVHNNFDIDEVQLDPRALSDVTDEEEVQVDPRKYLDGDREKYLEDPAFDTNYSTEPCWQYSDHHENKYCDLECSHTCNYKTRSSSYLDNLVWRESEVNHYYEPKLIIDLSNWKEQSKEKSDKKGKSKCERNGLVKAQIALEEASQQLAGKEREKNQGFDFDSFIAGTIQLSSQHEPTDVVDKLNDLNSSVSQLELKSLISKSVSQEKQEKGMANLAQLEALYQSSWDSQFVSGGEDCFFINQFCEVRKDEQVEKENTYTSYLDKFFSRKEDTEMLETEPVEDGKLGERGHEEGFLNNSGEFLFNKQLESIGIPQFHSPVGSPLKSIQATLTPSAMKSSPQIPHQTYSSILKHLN

FLT3(D835Y) = biological target: T12, FLT3(D835Y) (Homo sapiens, UniProt P36888, D835Y); assay type: binding; settings: read-out: Percent Control
T12 construct: purchased Eurofins DiscoverX KINOMEscan (scanMAX 468)

[3] = biological target: T13, JAK1(JH1domain-catalytic) (Homo sapiens, UniProt P23458); assay type: binding; settings: read-out: Percent Control
T13 construct: JAK1(JH1domain-catalytic); purchased Eurofins DiscoverX KINOMEscan (scanMAX 468)

[4] = biological target: T14, JAK1(JH2domain-pseudokinase) (Homo sapiens, UniProt P23458); assay type: binding; settings: read-out: Percent Control
T14 construct: JAK1(JH2domain-pseudokinase); purchased Eurofins DiscoverX KINOMEscan (scanMAX 468)

[5] = biological target: T15, JAK2(JH1domain-catalytic) (Homo sapiens, UniProt O60674); assay type: binding; settings: read-out: Percent Control
T15 construct: JAK2(JH1domain-catalytic); purchased Eurofins DiscoverX KINOMEscan (scanMAX 468)
T15 sequence (O60674 840-1132 limits assumed): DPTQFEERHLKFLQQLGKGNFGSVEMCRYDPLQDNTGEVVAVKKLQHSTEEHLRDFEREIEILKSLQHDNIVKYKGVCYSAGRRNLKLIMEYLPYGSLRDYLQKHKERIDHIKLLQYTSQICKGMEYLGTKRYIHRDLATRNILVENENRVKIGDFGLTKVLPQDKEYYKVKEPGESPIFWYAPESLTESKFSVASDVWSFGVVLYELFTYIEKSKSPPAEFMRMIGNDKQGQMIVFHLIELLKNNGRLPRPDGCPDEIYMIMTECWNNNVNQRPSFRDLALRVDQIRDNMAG

KIT = biological target: T16, KIT (Homo sapiens, UniProt P10721); assay type: binding; settings: read-out: Percent Control
T16 construct: purchased Eurofins DiscoverX KINOMEscan (scanMAX 468)

LIMK1 = biological target: T17, LIMK1 (Homo sapiens, UniProt P53667); assay type: binding; settings: read-out: Percent Control
T17 construct: purchased Eurofins DiscoverX KINOMEscan (scanMAX 468)

LYN = biological target: T18, LYN (Homo sapiens, UniProt P07948); assay type: binding; settings: read-out: Percent Control
T18 construct: purchased Eurofins DiscoverX KINOMEscan (scanMAX 468)
T18 sequence (P07948 whole entry): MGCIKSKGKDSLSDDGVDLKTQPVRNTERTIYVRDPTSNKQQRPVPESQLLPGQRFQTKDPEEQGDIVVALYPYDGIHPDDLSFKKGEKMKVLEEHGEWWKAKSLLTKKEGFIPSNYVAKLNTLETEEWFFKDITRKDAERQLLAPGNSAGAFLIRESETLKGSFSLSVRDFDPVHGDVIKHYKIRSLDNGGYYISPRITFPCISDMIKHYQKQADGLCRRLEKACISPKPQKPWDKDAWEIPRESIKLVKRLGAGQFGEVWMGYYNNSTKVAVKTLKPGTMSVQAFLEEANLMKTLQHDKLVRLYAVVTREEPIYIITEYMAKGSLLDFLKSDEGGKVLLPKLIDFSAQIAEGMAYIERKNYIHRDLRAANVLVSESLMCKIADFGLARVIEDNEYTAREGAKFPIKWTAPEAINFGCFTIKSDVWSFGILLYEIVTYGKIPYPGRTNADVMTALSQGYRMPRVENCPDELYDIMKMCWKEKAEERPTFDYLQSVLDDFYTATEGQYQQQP

MAP3K4 = biological target: T19, MAP3K4 (Homo sapiens, UniProt Q9Y6R4); assay type: binding; settings: read-out: Percent Control
T19 construct: purchased Eurofins DiscoverX KINOMEscan (scanMAX 468)

MST1 = biological target: T20, MST1 (Homo sapiens, UniProt Q13043); assay type: binding; settings: read-out: Percent Control
T20 construct: purchased Eurofins DiscoverX KINOMEscan (scanMAX 468)

NEK4 = biological target: T21, NEK4 (Homo sapiens, UniProt P51957); assay type: binding; settings: read-out: Percent Control
T21 construct: purchased Eurofins DiscoverX KINOMEscan (scanMAX 468)

PCTK2 = biological target: T22, PCTK2 (Homo sapiens, UniProt Q00537); assay type: binding; settings: read-out: Percent Control
T22 construct: purchased Eurofins DiscoverX KINOMEscan (scanMAX 468)

PCTK3 = biological target: T23, PCTK3 (Homo sapiens, UniProt Q07002); assay type: binding; settings: read-out: Percent Control
T23 construct: purchased Eurofins DiscoverX KINOMEscan (scanMAX 468)

PDGFRB = biological target: T24, PDGFRB (Homo sapiens, UniProt P09619); assay type: binding; settings: read-out: Percent Control
T24 construct: purchased Eurofins DiscoverX KINOMEscan (scanMAX 468)

PIK3CA(H1047L) = biological target: T25, PIK3CA(H1047L) (Homo sapiens, UniProt P42336, H1047L); assay type: binding; settings: read-out: Percent Control
T25 construct: purchased Eurofins DiscoverX KINOMEscan (scanMAX 468)

PIK3CA(Q546K) = biological target: T26, PIK3CA(Q546K) (Homo sapiens, UniProt P42336, Q546K); assay type: binding; settings: read-out: Percent Control
T26 construct: purchased Eurofins DiscoverX KINOMEscan (scanMAX 468)

PIM3 = biological target: T27, PIM3 (Homo sapiens, UniProt Q86V86); assay type: binding; settings: read-out: Percent Control
T27 construct: purchased Eurofins DiscoverX KINOMEscan (scanMAX 468)

PIP5K1A = biological target: T28, PIP5K1A (Homo sapiens, UniProt Q99755); assay type: binding; settings: read-out: Percent Control
T28 construct: purchased Eurofins DiscoverX KINOMEscan (scanMAX 468)

RET(V804M) = biological target: T29, RET(V804M) (Homo sapiens, UniProt P07949, V804M); assay type: binding; settings: read-out: Percent Control
T29 construct: purchased Eurofins DiscoverX KINOMEscan (scanMAX 468)
T29 sequence (P07949 29-1114 V804M): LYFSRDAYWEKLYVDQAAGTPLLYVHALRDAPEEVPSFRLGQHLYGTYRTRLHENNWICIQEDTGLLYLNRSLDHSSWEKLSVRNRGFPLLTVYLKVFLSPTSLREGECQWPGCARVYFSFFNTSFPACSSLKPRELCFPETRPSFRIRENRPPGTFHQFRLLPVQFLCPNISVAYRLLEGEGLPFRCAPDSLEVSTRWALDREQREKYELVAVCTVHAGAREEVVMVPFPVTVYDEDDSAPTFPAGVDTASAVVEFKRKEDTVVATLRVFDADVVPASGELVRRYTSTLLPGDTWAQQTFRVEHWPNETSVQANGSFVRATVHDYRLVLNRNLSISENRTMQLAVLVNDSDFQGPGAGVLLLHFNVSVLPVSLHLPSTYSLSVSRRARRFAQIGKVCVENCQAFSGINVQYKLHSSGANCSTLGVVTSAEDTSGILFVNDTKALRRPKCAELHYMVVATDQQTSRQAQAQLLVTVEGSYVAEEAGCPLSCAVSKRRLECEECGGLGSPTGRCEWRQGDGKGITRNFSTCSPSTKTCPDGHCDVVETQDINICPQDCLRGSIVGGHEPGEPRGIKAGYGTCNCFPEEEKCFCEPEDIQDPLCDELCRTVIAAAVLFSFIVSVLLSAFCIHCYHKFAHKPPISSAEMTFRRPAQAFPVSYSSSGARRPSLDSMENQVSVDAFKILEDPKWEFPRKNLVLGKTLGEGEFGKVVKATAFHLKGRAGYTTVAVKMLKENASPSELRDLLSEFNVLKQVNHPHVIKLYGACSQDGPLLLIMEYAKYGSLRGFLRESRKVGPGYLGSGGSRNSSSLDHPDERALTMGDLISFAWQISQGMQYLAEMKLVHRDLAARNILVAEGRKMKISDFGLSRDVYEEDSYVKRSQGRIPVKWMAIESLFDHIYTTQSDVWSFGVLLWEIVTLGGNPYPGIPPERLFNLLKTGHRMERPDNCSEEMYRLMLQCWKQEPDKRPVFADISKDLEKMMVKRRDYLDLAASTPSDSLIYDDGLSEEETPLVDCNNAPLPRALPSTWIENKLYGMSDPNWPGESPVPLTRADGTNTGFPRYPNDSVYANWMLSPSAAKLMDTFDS

RIOK3 = biological target: T30, RIOK3 (Homo sapiens, UniProt O14730); assay type: binding; settings: read-out: Percent Control
T30 construct: purchased Eurofins DiscoverX KINOMEscan (scanMAX 468)
T30 sequence (O14730 whole entry): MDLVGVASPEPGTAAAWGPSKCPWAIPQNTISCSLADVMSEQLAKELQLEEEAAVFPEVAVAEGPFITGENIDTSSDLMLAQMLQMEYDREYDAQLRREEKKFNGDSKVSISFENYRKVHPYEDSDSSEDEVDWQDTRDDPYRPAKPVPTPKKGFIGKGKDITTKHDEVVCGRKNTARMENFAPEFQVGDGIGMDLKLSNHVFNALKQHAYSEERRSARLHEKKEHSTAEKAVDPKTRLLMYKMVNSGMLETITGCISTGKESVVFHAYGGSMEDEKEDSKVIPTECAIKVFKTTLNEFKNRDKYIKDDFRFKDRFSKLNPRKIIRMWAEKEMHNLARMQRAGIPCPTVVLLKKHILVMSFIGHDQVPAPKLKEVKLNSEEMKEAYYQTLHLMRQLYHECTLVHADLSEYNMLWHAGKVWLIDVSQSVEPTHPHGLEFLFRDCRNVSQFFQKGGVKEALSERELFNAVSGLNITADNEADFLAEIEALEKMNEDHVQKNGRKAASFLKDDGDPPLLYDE

RIPK2 = biological target: T31, RIPK2 (Homo sapiens, UniProt O43353); assay type: binding; settings: read-out: Percent Control
T31 construct: purchased Eurofins DiscoverX KINOMEscan (scanMAX 468)
T31 sequence (O43353 whole entry): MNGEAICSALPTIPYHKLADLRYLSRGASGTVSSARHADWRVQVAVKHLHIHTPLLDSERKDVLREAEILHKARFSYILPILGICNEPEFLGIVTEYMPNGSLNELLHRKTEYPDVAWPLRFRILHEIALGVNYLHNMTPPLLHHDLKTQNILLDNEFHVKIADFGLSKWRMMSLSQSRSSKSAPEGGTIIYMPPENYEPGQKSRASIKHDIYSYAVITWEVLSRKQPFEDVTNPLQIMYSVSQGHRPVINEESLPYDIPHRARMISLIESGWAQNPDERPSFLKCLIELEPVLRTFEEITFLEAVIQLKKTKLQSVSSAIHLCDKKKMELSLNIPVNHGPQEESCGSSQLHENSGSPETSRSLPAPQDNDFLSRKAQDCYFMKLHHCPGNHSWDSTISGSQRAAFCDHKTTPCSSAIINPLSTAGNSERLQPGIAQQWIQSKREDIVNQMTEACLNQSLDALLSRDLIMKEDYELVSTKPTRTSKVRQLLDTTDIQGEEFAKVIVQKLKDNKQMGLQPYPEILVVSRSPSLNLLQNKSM

[6] = biological target: T32, RSK1(Kin.Dom.1-N-terminal) (Homo sapiens, UniProt Q15418); assay type: binding; settings: read-out: Percent Control
T32 construct: RSK1(Kin.Dom.1-N-terminal); purchased Eurofins DiscoverX KINOMEscan (scanMAX 468)

SgK110 = biological target: T33, SgK110 (Homo sapiens, UniProt P0C264); assay type: binding; settings: read-out: Percent Control
T33 construct: purchased Eurofins DiscoverX KINOMEscan (scanMAX 468)

SRMS = biological target: T34, SRMS (Homo sapiens, UniProt Q9H3Y6); assay type: binding; settings: read-out: Percent Control
T34 construct: purchased Eurofins DiscoverX KINOMEscan (scanMAX 468)

SRPK3 = biological target: T35, SRPK3 (Homo sapiens, UniProt Q9UPE1); assay type: binding; settings: read-out: Percent Control
T35 construct: purchased Eurofins DiscoverX KINOMEscan (scanMAX 468)
T35 sequence (Q9UPE1 whole entry): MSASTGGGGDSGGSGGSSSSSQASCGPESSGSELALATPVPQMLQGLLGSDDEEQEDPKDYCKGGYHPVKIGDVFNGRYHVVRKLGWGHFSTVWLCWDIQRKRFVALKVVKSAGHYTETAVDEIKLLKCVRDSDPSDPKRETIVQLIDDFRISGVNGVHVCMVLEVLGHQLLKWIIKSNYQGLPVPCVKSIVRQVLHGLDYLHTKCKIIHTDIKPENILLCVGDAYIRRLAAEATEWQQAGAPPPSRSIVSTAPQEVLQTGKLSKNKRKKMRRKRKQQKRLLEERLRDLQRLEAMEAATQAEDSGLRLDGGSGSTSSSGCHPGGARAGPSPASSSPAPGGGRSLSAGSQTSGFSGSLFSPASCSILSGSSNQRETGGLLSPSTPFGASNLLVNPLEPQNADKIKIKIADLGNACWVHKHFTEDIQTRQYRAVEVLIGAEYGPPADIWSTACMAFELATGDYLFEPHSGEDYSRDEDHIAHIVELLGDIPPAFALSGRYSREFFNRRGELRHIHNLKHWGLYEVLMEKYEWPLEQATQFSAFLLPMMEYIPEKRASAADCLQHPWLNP

STK39 = biological target: T36, STK39 (Homo sapiens, UniProt Q9UEW8); assay type: binding; settings: read-out: Percent Control
T36 construct: purchased Eurofins DiscoverX KINOMEscan (scanMAX 468)

TGFBR1 = biological target: T37, TGFBR1 (Homo sapiens, UniProt P36897); assay type: binding; settings: read-out: Percent Control
T37 construct: purchased Eurofins DiscoverX KINOMEscan (scanMAX 468)

TRKA = biological target: T38, TRKA (Homo sapiens, UniProt P04629); assay type: binding; settings: read-out: Percent Control
T38 construct: purchased Eurofins DiscoverX KINOMEscan (scanMAX 468)

YES = biological target: T39, YES (Homo sapiens, UniProt P07947); assay type: binding; settings: read-out: Percent Control
T39 construct: purchased Eurofins (KINOMEscan, DiscoverX)
T39 sequence (P07947 whole entry): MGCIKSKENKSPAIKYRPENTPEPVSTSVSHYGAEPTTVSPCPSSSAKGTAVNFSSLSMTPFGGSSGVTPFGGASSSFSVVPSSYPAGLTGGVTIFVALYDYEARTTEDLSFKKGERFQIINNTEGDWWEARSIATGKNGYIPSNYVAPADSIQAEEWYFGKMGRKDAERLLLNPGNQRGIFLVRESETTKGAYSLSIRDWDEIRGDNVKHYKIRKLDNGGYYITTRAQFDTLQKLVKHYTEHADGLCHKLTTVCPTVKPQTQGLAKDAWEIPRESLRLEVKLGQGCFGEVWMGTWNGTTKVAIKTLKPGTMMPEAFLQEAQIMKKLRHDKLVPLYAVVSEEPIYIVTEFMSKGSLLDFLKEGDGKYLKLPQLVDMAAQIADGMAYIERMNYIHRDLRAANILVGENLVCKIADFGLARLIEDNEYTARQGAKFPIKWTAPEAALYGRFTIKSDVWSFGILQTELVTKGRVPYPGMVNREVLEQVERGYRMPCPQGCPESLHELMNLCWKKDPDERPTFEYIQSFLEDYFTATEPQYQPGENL

Cc1ccc(-n2cc(COc3cccc4cnc(Nc5cccc(Cl)c5)nc34)nn2)c([N+](=O)[O-])c1 [DB18]
71%: remaining binding at 1 µM (CSF1R-autoinhibited)
8.9%: remaining binding at 1 µM (TRKA)
99%: remaining binding at 1 µM (ASK2) | remaining binding at 1 µM (NEK4)
88%: remaining binding at 1 µM (CDKL1) | remaining binding at 1 µM (EPHA4)
29%: remaining binding at 1 µM (FLT3(D835Y))
97%: remaining binding at 1 µM (STK39)
85%: remaining binding at 1 µM (SgK110)
100%: remaining binding at 1 µM [1] | remaining binding at 1 µM [2] | remaining binding at 1 µM (CAMK1D) | remaining binding at 1 µM (EGFR(G719C)) | remaining binding at 1 µM (ERK2) | remaining binding at 1 µM (ERK3) | remaining binding at 1 µM [3] | remaining binding at 1 µM [4] | remaining binding at 1 µM [5] | remaining binding at 1 µM (KIT) | remaining binding at 1 µM (LIMK1) | remaining binding at 1 µM (MAP3K4) | remaining binding at 1 µM (MST1) | remaining binding at 1 µM (PCTK3) | remaining binding at 1 µM (PDGFRB) | remaining binding at 1 µM (PIK3CA(H1047L)) | remaining binding at 1 µM (PIM3) | remaining binding at 1 µM (PIP5K1A) | remaining binding at 1 µM (RIOK3) | remaining binding at 1 µM (SRPK3) | remaining binding at 1 µM (TGFBR1) | remaining binding at 1 µM (YES)
98%: remaining binding at 1 µM (PCTK2) | remaining binding at 1 µM (RIPK2) | remaining binding at 1 µM [6] | remaining binding at 1 µM (SRMS)
94%: remaining binding at 1 µM (CDKL3)
93%: remaining binding at 1 µM (LYN)
100 % Ctrl: Percent Control (EGFR(L747-T751del,Sins))
96%: remaining binding at 1 µM (PIK3CA(Q546K)) | remaining binding at 1 µM (RET(V804M))
